The source made the active and inactive calls. No cut-off for these calls is given here.
Experiments:
DNA topoisomerase I [1] = molecular target: T1, DNA topoisomerase I (Leishmania donovani (strain BPK282A1), UniProt E9BRC0); experiment: Inhibition of Leishmania donovani Top1 assessed as relaxation of supercoiled pBluescript SK(+) DNA measured by agarose gel electrophoresis analysis
T1 sequence (E9BRC0 whole entry): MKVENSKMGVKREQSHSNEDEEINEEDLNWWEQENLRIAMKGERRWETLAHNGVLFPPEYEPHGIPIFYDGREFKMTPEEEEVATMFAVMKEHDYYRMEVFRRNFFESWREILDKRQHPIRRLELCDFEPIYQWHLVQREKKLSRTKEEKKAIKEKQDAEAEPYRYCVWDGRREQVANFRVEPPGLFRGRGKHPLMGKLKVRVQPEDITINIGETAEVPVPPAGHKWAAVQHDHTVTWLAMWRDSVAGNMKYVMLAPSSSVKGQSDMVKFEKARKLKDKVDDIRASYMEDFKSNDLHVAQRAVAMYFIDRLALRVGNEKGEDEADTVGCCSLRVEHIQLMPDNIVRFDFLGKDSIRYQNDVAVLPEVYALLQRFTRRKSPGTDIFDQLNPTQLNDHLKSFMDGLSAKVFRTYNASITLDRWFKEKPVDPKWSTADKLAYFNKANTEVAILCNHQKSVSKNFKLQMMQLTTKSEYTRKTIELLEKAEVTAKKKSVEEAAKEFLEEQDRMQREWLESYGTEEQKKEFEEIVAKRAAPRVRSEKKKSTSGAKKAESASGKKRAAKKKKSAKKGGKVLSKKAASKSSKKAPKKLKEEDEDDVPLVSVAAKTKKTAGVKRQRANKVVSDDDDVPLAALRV

DNA topoisomerase I [2] = molecular target: T1, DNA topoisomerase I; experiment: Inhibition of recombinant Top1 in Leishmania donovani Ag83 whole cell extract assessed as relaxation of supercoiled pBluescript SK(+) DNA measured by agarose gel electrophoresis analysis
Leishmania donovani [3] = experiment: Antileishmanial activity against Leishmania donovani Ag83 amastigotes infected in BALB/c mouse macrophage assessed as cell viability measured after 48 hrs infection by propidium iodide staining analysis relative to control; type: functional, organism-based; conditions: Ag83, 48 h
Leishmania donovani [4] = experiment: Antileishmanial activity in Leishmania donovani Ag83 promastigotes assessed as Top1cc-induced DNA breakdown by measuring TUNEL positive cells by confocal microscopic analysis; type: functional, organism-based; conditions: time 6-12 hrs, TDE = time-dependent effect
[5] = molecular target: T2, DNA topoisomerase I (Leishmania donovani (strain BPK282A1)) (UniProt E9BRC0); experiment: Binding affinity to antimony resistant Leishmania donovani BHU575 promastigotes recombinant topoisomerase I assessed as stabilization of cleavage complex at 50 to 100 uM measured after 30 mins; conditions: dose 50-100 µM
T2 sequence (whole entry): T1 sequence (E9BRC0 whole entry)

[6] = molecular target: T2, DNA topoisomerase I (Leishmania donovani (strain BPK282A1)); experiment: Binding affinity to Leishmania donovani recombinant topoisomerase I assessed as stabilization of cleavage complex at 25 to 50 uM measured after 30 mins; conditions: dose 25-50 µM
MCF7 = experiment: Induction of cell cycle arrest in human MCF7 cells assessed as accumulation at G1 sub population measured at 5 uM upto 24 hrs by PI staining based flow cytometry; type: functional
Leishmania donovani [7] = experiment: Stabilization of Leishmania donovani promastigotes Top1-DNA complex assessed as formation of SDS-KCl precipitable complex incubated for 110 mins by anti-BrdU staining based spectrophotometric analysis
Leishmania donovani [8] = experiment: Antileishmanial activity against antimony resistant Leishmania donovani BHU575 promastigotes assessed as cell viability by MTT assay; type: functional, organism-based
Leishmania donovani [9] = experiment: Antileishmanial activity against antimony resistant Leishmania donovani BHU575 amastigotes infected in BALB/c mouse macrophage assessed as cell viability measured after 48 hrs infection by propidium iodide staining analysis relative to control; type: functional, organism-based; conditions: BHU575, 48 h
Leishmania donovani [10] = experiment: Antileishmanial activity against Leishmania donovani Ag83 promastigotes assessed as cell viability by MTT assay; type: functional, organism-based
[11] = Cytotoxicity against BALB/c mouse macrophage assessed as cell viability measured after 48 hrs infection by propidium iodide staining analysis relative to control; type: toxicity, cell-based; conditions: mouse macrophages
[12] = molecular target: T2, DNA topoisomerase I (Leishmania donovani (strain BPK282A1)); experiment: Binding affinity to topoisomerase I in Leishmania donovani Ag83 whole cell lysate assessed as stabilization of cleavage complex at 50 to 100 uM measured after 30 mins; type: subcellular; conditions: dose 50-100 µM
Leishmania donovani [13] = experiment: Antileishmanial activity in Leishmania donovani Ag83 promastigotes assessed as reversible of Top1cc-induced DNA breakdown by disappearance of measuring TUNEL positive cells treated for 6 to 12 hrs followed by compound removal measured after 6 to 12 hrs by confocal microscopic analysis; type: functional, organism-based; conditions: time 6-12 hrs
[14] = molecular target: T2, DNA topoisomerase I (Leishmania donovani (strain BPK282A1)); experiment: Inhibition of Leishmania donovani topoisomerase I assessed as DNA intercalation using pBluscript (SK+) DNA as substrate at 50 to 200 uM incubated for 15 mins ethidium bromide staining based UV analysis; conditions: dose 50-200 µM
[15] = molecular target: T2, DNA topoisomerase I (Leishmania donovani (strain BPK282A1)); experiment: Binding affinity to Leishmania donovani topoisomerase I assessed as DNA intercalation by measuring dislodging of bound fluorophore at 50 uM by EtBr displacement assay

| SMILES | IC50 (DNA topoisomerase I [1]) | also measured |
| --- | --- | --- |
| Cc1cccn2c1nc1c3ccccc3nc(-c3ccccn3)c12 | > 10 µM | – |
| COc1ccc(-c2nc3ccccc3c3nc4ccccn4c23)cc1OC | 5.25 µM | IC50 (DNA topoisomerase I [2]): 12 µM |
| CC[C@@]1(O)C(=O)OCc2c1cc1n(c2=O)Cc2cc3ccccc3nc2-1 [CAMPTOTHECIN] | – | EC50 (Leishmania donovani [3]): 7.84 µM; Activity (Leishmania donovani [4]): Tde; Activity [5]: Active; Activity [6]: Active; Activity (MCF7): Active; Activity (Leishmania donovani [7]): Active; EC50 (Leishmania donovani [8]): 6.58 µM; EC50 (Leishmania donovani [9]): 12.8 µM; EC50 (Leishmania donovani [10]): 3.79 µM; EC50 at 48 h [11]: 18.3 µM; Activity [12]: Active; Activity (Leishmania donovani [13]): inactive |
| Cc1ccc2nc3c4ccccc4ncc3n2c1 | > 10 µM | – |
| Cc1cccn2c1nc1c3ccccc3nc(-c3ccccc3)c12 | 6.75 µM | IC50 (DNA topoisomerase I [2]): 12.8 µM |
| Cc1cccn2c1nc1c3ccccc3nc(-c3ccc(Cl)cc3)c12 | 5.5 µM | IC50 (DNA topoisomerase I [2]): 12.5 µM |
| Cc1ccn2c(c1)nc1c3ccccc3nc(-c3ccccc3)c12 | > 10 µM | – |
| c1ccc(-c2nc3ccccc3c3nc4ccccn4c23)cc1 | > 10 µM | – |
| COc1ccc(-c2nc3ccccc3c3nc4cc(C)ccn4c23)cc1 | > 10 µM | – |
| O=[N+]([O-])c1cccc(-c2nc3ccccc3c3nc4ccccn4c23)c1 | > 10 µM | – |
| COc1cc(NS(C)(=O)=O)ccc1Nc1c2ccccc2nc2ccccc12 | – | inhibition [14]: Active; Activity [15]: Active |
| O=[N+]([O-])c1ccccc1-c1nc2ccccc2c2nc3ccccn3c12 | > 10 µM | – |
| c1ccc2c(c1)ncc1c2nc2ccccn21 | > 10 µM | – |
| COc1cc([C@@H]2c3cc4c(cc3[C@@H](O[C@@H]3O[C@@H]5CO[C@@H](C)O[C@H]5[C@H](O)[C@H]3O)[C@H]3COC(=O)[C@H]23)OCO4)cc(OC)c1O | – | inhibition [14]: inactive |
| Clc1ccc(-c2nc3ccccc3c3nc4ccccn4c23)cc1 | 8.52 µM | – |
| O=[N+]([O-])c1ccc(-c2nc3ccccc3c3nc4ccccn4c23)cc1 | > 10 µM | – |
| Cc1ccc(-c2nc3ccccc3c3nc4ccccn4c23)cc1 | > 10 µM | – |
| Clc1ccc2nc3c4ccccc4ncc3n2c1 | > 10 µM | – |
| Brc1ccc2nc3c4ccccc4ncc3n2c1 | > 10 µM | – |
| Cc1cccn2c1nc1c3ccccc3nc(-c3cccs3)c12 | 7.25 µM | IC50 (DNA topoisomerase I [2]): 14.9 µM |
| Cc1ccn2c(c1)nc1c3ccccc3ncc12 | > 10 µM | – |
| Cc1ccc(-c2nc3ccccc3c3nc4cc(C)ccn4c23)cc1 | > 10 µM | – |
| Cc1ccc(-c2nc3ccccc3c3nc4c(C)cccn4c23)cc1 | 7.25 µM | IC50 (DNA topoisomerase I [2]): 15.1 µM |

Source: ChEMBL document CHEMBL5316350, “Novel Pyrido[2',1':2,3]imidazo[4,5-c]quinoline Derivative Selectively Poisons Leishmania donovani Bisubunit Topoisomerase 1 to Inhibit the Antimony-Resistant Leishmania Infection in Vivo” (J Med Chem, 2023)
